Reference: patent US5234937A, “3,5-di-tertiary-butyl-4-hydroxphenyl oxazolyl methanones and related compounds as antiinflammatory agents” (Warner-Lambert Company, priority 1991, dated 1993)

What was measured:
Cyclooxygenase = assay: ARBC whole cell cyclooxygenase assay (PGF2α formation, RBL-1 cells); assay type: cell-based, rat; conditions: A23187 stimulated
Description: (§1) ARBL/ARBC Cell 5-Lipoxygenase and Cyclooxygenase Assays The rat basophilic leukemia cell line (RBL-1) was obtained from the American Type Culture Collection (Rockville, MD). Radioimmunoassay (RIA) kits of LTB4 and PGF2α were obtained from Amersham (Arlington Heights, IL) and Seragen (Boston, MA), respectively. RBL-1 cells are grown in suspension culture in Eagle's minimum essential medium supplemented with 12% fetal bovine serum at 37° C in an incubator supplied with air-5% carbon dioxide. Cells are harvested by centrifugation. They are washed with cold phosphate buffered saline pH 7.4 (PBS; NaCl, 7.1 g; Na2 HPO4, 1.15 g; KH2 PO4, 0.2 g; and KCl, 0.2 g/L). Cells are finally suspended in PBS containing 1.0 mM calcium at a density of 2×10^6 cells/mL. Cells are incubated with and without test agent (in DMSO) (1% DMSO is without effect on arachidonic acid metabolism) for 10 minutes at room temperature. Calcium ionophore A23187 (5 μM) is added and cells are incubated for 7 minutes at 37° C. The reaction is stopped by chilling the tubes on ice for 10 minutes. Cells are separated by centrifugation and the supernatant is stored at -20° C. Aliquots (100 μ L) are analyzed for LTB4 and PGF2α using radioimmunoassay kits as provided by the supplier. Table I contains biochemical data obtained from this whole cell assay as IC50 s which are calculated as the amount of test compound causing 50% inhibition or % of inhibition at the named micromoles (μM) of […] or PGF2α formation.

[1] = test system: Carrageenan-induced rat foot paw edema; assay: Carrageenan-induced rat foot paw edema 2 (CFE 2) assay; assay type: in vivo; conditions: 3 mg/kg, dosed 1 hour before carrageenan, edema measured 5 hours after carrageenan
Description: Carraogenan-Induced Rat Foot Paw Edema 2 (CFE 2) Assay: Protocol
Carageenan solution (1% w/v) is prepared by dissolving 100 mg carrageenan (Marine Colloidal Div., Springfield, NJ) in 10 mL of sterile saline (0.9%) solution (Travenol). The solution is vortexed for 30 to 45 minutes. Animals are dosed with compound 1 hour before carrageenan challenge. Foot paw edema is induced by injecting 0.10 mL of the 1% carrageenan subcutaneously into the plantar portion of the right hind paw of each rat under light anesthesia. Initial foot paw volume is measured immediately following carrageenan challenge using mercury plethysmography (Buxco Electronics). Edema is measured 5 hours after carrageenan. The difference between the 5-hour and the initial paw volume is expressed as delta edema. The delta edema for each test group of animals is used to calculate the percent inhibition of edema achieved by the compound at the test dose compared with the vehicle control group. The data in Table I (the dose at which swelling is inhibited by the noted percent) is calculated by probit analysis for the dose at which percent inhibition occurs.

5-Lipoxygenase = target: T1, 5-Lipoxygenase (Rattus norvegicus, UniProt P12527); assay: ARBL whole cell 5-lipoxygenase assay (LTB4 formation, RBL-1 cells); assay type: cell-based; conditions: A23187 stimulated; for inhibition at 10 µM: read-out: ARBL Percent inhibition of LTB4 @ 10 μM
T1 construct: host or cells: RBL-1 (rat basophilic leukemia)
T1 sequence (P12527 1-673): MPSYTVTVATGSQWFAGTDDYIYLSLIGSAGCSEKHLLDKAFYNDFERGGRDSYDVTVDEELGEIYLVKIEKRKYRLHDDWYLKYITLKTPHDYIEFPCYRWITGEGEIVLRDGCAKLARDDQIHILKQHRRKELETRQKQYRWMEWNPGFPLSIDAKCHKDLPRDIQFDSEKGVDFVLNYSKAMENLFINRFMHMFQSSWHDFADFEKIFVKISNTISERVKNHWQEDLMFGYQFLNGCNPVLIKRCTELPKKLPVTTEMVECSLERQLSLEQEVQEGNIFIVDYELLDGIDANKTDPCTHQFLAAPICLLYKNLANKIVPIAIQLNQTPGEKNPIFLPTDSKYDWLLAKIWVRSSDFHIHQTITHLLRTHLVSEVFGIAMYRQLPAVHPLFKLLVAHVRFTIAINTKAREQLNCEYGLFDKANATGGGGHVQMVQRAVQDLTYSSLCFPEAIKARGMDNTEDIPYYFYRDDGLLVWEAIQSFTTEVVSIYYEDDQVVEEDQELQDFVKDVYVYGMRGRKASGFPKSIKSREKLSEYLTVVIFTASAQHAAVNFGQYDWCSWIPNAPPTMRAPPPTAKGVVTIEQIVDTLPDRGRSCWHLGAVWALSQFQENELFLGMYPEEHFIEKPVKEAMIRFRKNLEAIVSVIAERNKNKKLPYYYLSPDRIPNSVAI
Description: as §1

Row | Structure (SMILES) | IC50 (Cyclooxygenase; PGF2α by RIA) [nM] | CFE percent inhibition of edema [1] [%] | IC50 (5-Lipoxygenase; LTB4 by RIA, read-out: ARBL IC50 for LTB4 inhibition) [nM] | ARBC Percent inhibition of PGF2α @ 10 μM (Cyclooxygenase) [%] | inhibition at 10 µM (5-Lipoxygenase) [%]
1 | Cc1cc(C(=O)c2cc(C(C)(C)C)c(O)c(C(C)(C)C)c2)no1 [Example 1, [3,5-Bis(1,1-dimethylethyl)-4-hydroxyphenyl](5-methyl-3-isoxazolyl)methanon] | 60 | 37 | 830 | – | –
2 | CC(C)(C)c1cc(C(=O)c2nccs2)cc(C(C)(C)C)c1O [Example 4, [3,5-Bis(1,1 dimethylethyl)-4-hydroxyphenyl]-2-thiazolylmethanone] | – | – | – | 91 | 91
3 | CON=C(c1cc(C(C)(C)C)c(O)c(C(C)(C)C)c1)c1cc(C)on1 [Example 14] | – | – | – | 97 | 100
